# In patent US8609409B2, “Methods and compositions for cell culture platform” (Clemson University, priority 2009, dated 2013):
# Entries after “also recorded” stand apart in the source; their conditions may differ. Where no end group is shown, it is not given here.
# Key:
# [1] = test system: in vitro cell cultures; test: safety and cytotoxic profile of genipin; type: cell-based
# Source text: Chitosan and gelatin are two naturally occurring polymers. Chitosan is a polysaccharide formed by cross linkage of multiple monosaccharide units. It has active acetyl groups available for cross linkage. At acidic pH, chitosan is able to undergo polymerization. Gelatin is a peptide polymer and chemically derived from denatured collagen. […] Chitosan and gelatin co-polymer can be created by mixing chitosan with gelatin using a standard and well known procedure that involves creating acidic pH for chitosan polymerization followed by mixing with heated and stirred gelatin solution. However there are two disadvantages of this approach—high osmolarity of the resultant solution (>500 mM) and acidic pH. There are also concerns for cytotoxicity to biological tissues at such high concentrations. These disadvantages render the use of this copolymer useless for clinical application, In the present invention, chitosan and gelatin were cross linked by two different approaches—the first was a covalent linkage using genipin followed by using ionic cross linkage using glycerol phosphate. Genipin is a plant derived cross linker and quite cheap. […] This concentration of genipin was added to chitosan and gelatin mixture. Genipin is able to covalently link both the saccharide and amine groups available in chitosan and gelatin, respectively. This creates a polysaccharide-peptide cross linkage. […]
# [2] = Rheological characterization of PEG hydrogels conjugated with peptides; type: physicochemical; details: 4-arm thiolated PEG 2% + PEGTA 2%, our peptide 10, 50, 100 μM; for start of gelation process (G′>G″): 37° C., lam-IKVAV 100 μM
# Procedure: Rheometer (AR1000, TA Instruments) was used to measure hydrogel mechanical properties, such as storage modulus (G′) and loss modulus (G″), and gelation time^8. Briefly, the time sweep was performed to monitor the in situ gelation at 37° C., recording the temporal evolution of G′ and G″. Frequency sweep test was used to obtain information about the stability of hydrogel structures. The stress sweep was set up by holding the frequency 1 Hz constant while increasing the stress level from 1 to 10 Pa. […] Oscillatory stress sweep allowed determination of G′ of hydrogels.
# (§1) The lam-IKVAV peptide and our synthesized peptide of different concentrations were conjugated to PEG hydrogels through addition reaction of peptide cys thiols onto the ends of a PEGTA crosslinker as described before^9. Briefly, peptides containing stock solutions (100 μM) were prepared in the PEGTA stock solution (2% w/w) and stirred for 2 h at room temperature. In the peptide-linker stock solutions, the molar ratio of peptides to PEGTA was 1:20. The reaction kinetics of conjugate addition of cys-containing IKVAV peptides to PEGTA was followed using 5,5′-dithio-bis(2-nitrobenzoic acid) (DTNB) reagent according to previous study^9. Additional PEGTA solutions with lower peptide concentrations of 50 and 10 μM were prepared by diluting the stock solution with peptide-free […] solution (peptide: PEGTA: 1:40 and 1:200, respectively). Then PEGTA solutions containing different concentrations of peptides were added to 4-arm thiolated PEG (2% w/w) solution and mixed thoroughly to form hydrogels.
# [3] = test system: Human neural progenitor cells (hNPCs); test: hNPC attachment, morphology and proliferation on gold-coated cover slips; type: cell-based; details: for hNPC attachment: day 1; for state of attached hNPCs: day 10
# Procedure: (§2) Human neural progenitor cells were obtained from Millipore (Billerica, Mass.). The stem cell is an immortalized neural progenitor cell line derived from the ventral mesencephalon region of human fetal brain and immortalized by retroviral transduction with the v-myc oncogene. In conventional culture, laminin (20 μg/mL) was used to coat tissue culture plastic-wares at least 2 h before hNPC seeding. Human NPCs were maintained in ReNcell Neural Stem Cell Medium (Millipore) with FGF-2 (20 ng/mL) and EGF (20 ng/mL). Human NPCs were incubated at 37° C. under 5% CO2 and used before passage 5 in this study. For cell adhesion assays, cells were removed from the plate using Accutase, aspirated in growth media, and seeded on peptide or laminin coated substrates at a density of 50, 000 cells/cm^2. For differentiation study, hNPCs were cultured with the medium without FGF-2 and EGF.
# The lam-IKVAV and our synthesized peptide were conjugated to gold-coated cover slips. For gold-coating on glass surfaces, cover slips were first cleaned with ethanol by sonication for 30 min. Then gold was coated on the cover slips by a sputter coater. For peptide and laminin coating, the peptide (150 μg/mL or 100 μM) or laminin (20 μg/mL) solutions were applied on the cover slips for at least 2 h. Then the solutions were removed from the slips and washed with phosphate buffered saline (PBS) for three times. Atomic force microscope (AFM) was used to examine the 3D configuration of the peptides on the surface.
# To determine whether peptide-functionalized surfaces can support cell attachment and long-term culture and proliferation, hNPCs were cultured in complete growth medium, which contains FGF-2 and EGF to maintain hNPCs in the undifferentiated state. Cells were incubated at 37° C. with media changed every other day as we routinely culture hNPCs in laminin coated substrates. At the day 1, 5, and 10, cells were assayed with CyQuant (Invitrogen). The cell number was generated through a standard curve.
# (§3) Morphology of cells was examined by immunostaining of actin. Cells were fixed with 4% (w/v) paraformaldehyde, permeabilized with 0.5% Triton X-100 (t-octylphenoxyplyethoxy-ethanol), and stained with Alexa Fluor-543 Phalloidin for 30 min. The nuclei were counterstained with 1 μg/mL DAPI for 30 min. The cells were imaged using a Leica TCS SP5 laser scanning confocal microscope (Bannockburn, Ill.).
# [4] = test system: Human neural progenitor cells (hNPCs); test: hNPC differentiation on coated cover slips; type: cell-based; details: 2 weeks, media without FGF-2 and EGF
# Procedure: as §2
# The differentiation of hNPCs on the tested surfaces was assayed by immunocytochemistry. Human NPCs were cultured for 2 weeks with differentiation media without growth factors FGF-2 and EGF. The cells were fixed with 4% (w/v) paraformaldehyde, treated with 5% goat serum in PBS to block non-specific reactivity and incubated overnight at 4° C. with primary antibodies, such as β III tubulin and glial fibrillary acidic protein (GFAP). After washing with PBS three times, the samples were incubated with the secondary antibodies at room temperature for 3 h. Then the nuclei were counterstained with DAPI for 30 min. The samples were imaged using the same microscope as described before. At least 6 random fields per surface were analyzed for each group.
# [5] = test system: Human neurospheres (hNPCs); test: Human neurospheres cultured inside hydrogels conjugated with peptides; type: cell-based
# Procedure: Neurospheres with uniform sizes were fabricated using a robotic fabrication system developed in our lab. Briefly, stamps with micronipple array were designed in SolidWorks and fabricated using ultra-precision lathe. The automatic neurospheres fabricator was built on a TT-C3-4040 robot (IAI Corporation, Shizuoka, Japan) with electric triggered gripper to pick up the stamp and pipette tip uptake and ejection actuator to handle liquid. Agarose solution (2% w/w) was prepared by built-in heating elements in the robot platform. The robot was programmed to first add agarose solution to culture dishes. Then the robot picked up the stamp with micronipple arrays on the bottom and pressed on the agarose solution at room temperature for 2 min. Then the highly uniform size microwells were formed in the agarose gel. Human NPC suspension was uptake by the robot and added to the culture well with microwell arrays. After 24 h of culture at 37° C. and 5% CO2, uniform sized neurospheres were formed for this study use. For 3D culture, human neurospheres with uniform size were mixed with hydrogel precursor solutions before hydrogel formation.
# Viability of cells inside hydrogels was examined using LIVE/DEAD Viability Kit, which is a two color fluorescent assay based on differential permeability of live and dead cells and allows preservation of the distinctive staining pattern for a couple of hours after post-fixation with 4% (w/v) glutaraldehyde. Live cells were stained with green fluorescent SYTO 10; and dead cells with compromised cell membranes were stained with red fluorescent ethidium homodimer-2. […]
# We quantified the cell migration by taking measurements of the distance between the edge of spheres and the cell bodies at their outer perimeters. FIG. 26 presents quantification of cell migration from neurospheres cultured inside hydrogels conjugated with lam-IKVAV of 100 μM and our novel IKVAV peptide of different concentrations of 0, 10, 50, and 100 μM at the day 3, 7, and 21. […]
# [6] = test system: Human neural progenitor cells (hNPCs); test: hNPCs cultured on the surface of hydrogels conjugated with peptides; type: cell-based; details: for hNPC attachment and proliferation on hydrogel surface: lam-IKVAV 100 μM, our peptide 10 and 100 μM
# Procedure: as §1, §3
# Human NPCs were cultured on the surface of hydrogels with maintain media for 7 days. Without any bioactive peptide, hNPCs could not attach on the surface of blank PEG hydrogels (FIG. 22B). The cells formed spheres by themselves at the day 3. […] These attached cells proliferated on the surface as the function of time (FIGS. 22C and 22D). […] There was no difference about the morphology of hNPCs between these two groups.
Compound,concentration found to be safe [1] [µM],start of gelation process (G′>G″) [2] [min],storage modulus G′ ([2]; at 2 h),attachment and proliferation compared with laminin coated surface [3],hNPC morphology / spreading [3],hNPC attachment [3],state of attached hNPCs [3],cells differentiated into astrocytes (GFAP+) [4] [%],cells differentiated into neurons (β III tubulin+) [4] [%],cells differentiated into astrocytes (GFAP+) ([4]; listed as our short peptide),peptide density with maximum enhancement of cell migration ([5]; conjugated to PEG hydrogels) [µM],"distance of hNSCs migration from neurospheres ([5]; peptide 10 μM, day 3, 7 and 21) [fold]",effect on cell migration from neurospheres ([5]; peptide concentration higher than 10 μM),"hNPC morphology on hydrogel surface ([6]; day 7, 10 and 100 μM)",hNPC attachment and proliferation on hydrogel surface [6],hNPC attachment and proliferation on hydrogel surface ([6]; listed as our short peptide)
COC(=O)C1=CO[C@@H](O)[C@@H]2C(CO)=CC[C@H]12 [genipin],400,–,–,–,–,–,–,–,–,–,–,–,–,–,–,–
Ac-Cys-Cys-Arg-Arg-Ile-Lys-Val-Ala-Val-Trp-Leu-Cys (Ac-CCRRIKVAVWLC-OH; cysteine pairing not given here) [our novel peptide],–,40,about 600 Pa,no significant difference,spread more evenly,significantly much more cells attached compared to lam-IKVAV,totally confluent on the whole surface,33,54,about 30%,10,2,inhibitory effects on cell migration,displayed spreading cytoskeletons,"improved hNPC attachment, spreading and proliferation",cells attached at the day 1
"CSRARKQAASIKVAVSADR [lam-IKVAV, commercial laminin IKVAV peptide from American Peptide Company, reference compound]",–,30,–,–,preferred to aggregate together,very few cells attached,floated off the surface,–,–,–,–,–,–,–,aggregated together; also recorded: did not support any hNPC attachment,–
"laminin: mouse laminin, whole ECM protein used as coating (20 μg/mL) [reference compound]",–,–,–,–,–,–,–,74,11,–,–,–,–,–,–,–
